# Measured values: patent US5175153A, “Substituted alpha-amino acids having pharmaceutical activity” (Warner-Lambert Company, priority 1988, dated 1992)
# Where two headings read alike, the source gives them in different places.
# Columns and labels:
# NMDA receptor = NMDA receptor binding assay using [^3 H]CPP as antagonist ligand; conditions: for IC50: [^3 H]CPP
# [1] = test system: NMDA-induced seizure and death; test: Inhibition of NMDA-induced seizures and death in mice; format: in vivo, male CF-1 mice; conditions: Mus musculus
# Method: Intraperitoneal injection of N-methyl-D-aspartic acid (NMDA) has been previously reported to induce clonic seizures in C57BL/6J mice (Bernard, P.S. et al, Models of N-methyl-D -aspartate antagonism: A comparison of 2-amino-7-phosphonoheptanoic acid with muscle relaxant drugs, 15th Annual Meeting, International Society for Neuroscience, 1985). In a modified version of the above protocol, male CF-1 mice received an intravenous injection of 25 mg/kg NMDA--behind the lateral aspect of the right eye. This induced a rapidly onsetting seizure followed shortly thereafter by death. […] ED50 were determined for inhibition of seizures and death through comparison of drug treatment groups (n=10) with their respective vehicle controls (n=10).
# [2] = test system: NMDA-Induced Subconvulsant Behavior; test: Inhibitory effects in NMDA-induced subconvulsant behavior (tail biting) in Fisher rats; format: in vivo; conditions: for % Responders: 30 min before 50 mg/kg IV NMDA; for Latency (min ± S.E.) / % I: 30 min before NMDA; for Latency (min ± S.E.): 60 minutes=maximum; for % I: [1 - % test responders/% control responders] × 100
# Method: In a modification of those methods, subconvulsant tail biting was induced in Fisher rats by intravenous injection of 50 mg/kg NMDA. The incidence (%) and response time (60 minutes=maximum) of control and drug treated rats (I.P., 30 minutes before NMDA) were compared. The inhibitory effects of 2-amino-7-phosphonoheptanoic acid and Example VIII are shown in Table 2 (% responders and time (latency in minutes)).
# *Rats were dosed IP, 2 mls/kg 30 min before NMDA.
# **% I = [1 - % test responders/% control responders] × 100.
# [3] = Observation of drug effects or normal behavior in rats dosed with NMDA
# [4] = 0.5 h, IV, five minutes prior to 25 mg/kg IV NMDA, survivors at thirty minutes, read-out: Inhibition of Death ED50
# [5] = IV, five minutes prior to 25 mg/kg IV NMDA, read-out: Inhibition of Seizures ED50
smiles,measurement,setting,value
"NC(C(=O)O)c1cccc(P(=O)(O)O)c1 (racemic) [Example VI A, (±)-α-Amino-3-Phosphonobenzeneacetic Acid]",IC50,NMDA receptor,17.9 µM
"NC(C(=O)O)c1ccc(CP(=O)(O)O)cc1 (racemic) [Example VIII, (±)-α-Amino-4-(Phosphonomethyl)Benzeneacetic Acid]",ED50,[1]; [4],7.6 mg/kg
same,ED50,[1]; [5],> 30 mg/kg
same,IC50,NMDA receptor,0.99 µM
same,most active of the most preferred compounds,"NMDA receptor; in words, test not given",most active compound
same,% Responders,"[2]; 25 mg/kg IP, phosphate buffer control 9/10",2/9
same,Latency (min ± S.E.),"[2]; 25 mg/kg IP, p < 0.01, phosphate buffer 24.8 ± 4.9",51.6 ± 5.6 min
same,% I,[2]; 25 mg/kg IP,77.8%
same,% Responders,"[2]; 37 mg/kg IP, phosphate buffer control 9/10",1/10
same,Latency (min ± S.E.),"[2]; 37 mg/kg IP, p < 0.001, phosphate buffer 24.8 ± 4.9",55.5 ± 4.5 min
same,% I,[2]; 37 mg/kg IP,88.9%
same,inhibitory effects compared with 7-APH,"[2]; in words, Table 2",inhibitory effects similar in potency and efficacy to 7-APH
same,drug induced behavioral effects,[3]; 37 mg/kg and 25 mg/kg IP,no drug induced behavioral effects
"NC(CCCCCP(=O)(O)O)C(=O)O (centres unmarked) [APH, 2-amino-7-phosphonoheptanoic acid, reference compound]",ED50,"[1]; iv, 0.5 h, read-out: Inhibition of Death ED50",30 mg/kg
same,ED50,"[1]; iv, read-out: Inhibition of Seizures ED50",> 30 mg/kg
same,IC50,NMDA receptor,0.8 µM
same,% Responders,"[2]; 10 mg/kg IP, saline control 9/10",6/10
same,Latency (min ± S.E.),"[2]; 10 mg/kg IP, p < 0.001, saline 15.8 ± 5.3",43.3 ± 5.8 min
same,% I,[2]; 10 mg/kg IP,33.3%
same,% Responders,"[2]; 30 mg/kg IP, saline control 9/11",1/10
same,Latency (min ± S.E.),"[2]; 30 mg/kg IP, p < 0.01, saline 33.1 ± 5.8",59.0 ± 1.0 min
same,% I,[2]; 30 mg/kg IP,87.8%
same,drug induced behavioral effects,[3]; 10 mg/kg IP,no drug induced behavioral effects
same,ataxia,[3]; 30 mg/kg IP,no ataxia
same,exploratory behavior,"[3]; 30 mg/kg IP, versus controls",slightly less exploratory than controls
"NC(C(=O)O)c1cccc(CP(=O)(O)O)c1 (stereo not drawn) [Example II, Benzeneacetic Acid, α-Amino-3-(Phosphonomethyl)-]",IC50,NMDA receptor,11.8 µM
NC(Cc1cccc(CP(=O)(O)O)c1)C(=O)O (centres unmarked) [Example III],ED50,[1]; [4],37 mg/kg
same,ED50,[1]; [5],~60 mg/kg
same,IC50,NMDA receptor,3.56 µM
